Laboratory results reported in US20200093838A1, “METHODS FOR TREATING AND PREVENTING ALLERGIES AND ACUTE ALLERGIC RESPONSES” (priority 2015, published 2020).
“Also recorded” adds a separate entry of the source.

Assays:
[1] = system: sensitized and challenged CD8-deficient mice; assay: Secondary allergen challenge model with adoptive transfer: lung histology (PAS); type: in vivo, mouse; settings: recipients of 1,25D3-treated CD8+ T cells
Description: (§1) 190, 4056-4065 (2013).; Ohnishi, H., et al. […] J. Allergy Clin. Immunol. 121, 864-871 e864 (2008)) with some modifications. CD8-deficient mice were sensitized with 20 μg of OVA (Calbiochem, La Jolla, Calif.) emulsified in 2.25 mg of alum (AlumImuject; Pierce, Rockford, Ill.) on days 0 and 14 by intraperitoneal injection. […] Omron Healthcare, Kyoto, JP). […] Airway function was measured and samples were collected 48 hours after the secondary challenge. […] Am. J. Respir. Crit. Care Med. 163, 173-184 (2001)). Lung histology: […] Paraffin sections (5-μm thick) were stained with periodic acid-Schiff (PAS).

[2] = system: sensitized and challenged CD8-deficient mice; assay: Secondary allergen challenge model with adoptive transfer of 1,25D3-treated CD8+ T cells: airway function (AHR); type: in vivo, mouse; settings: transfer of IL-2-differentiated CD8+ T cells cultured with 1,25D3 (100 nM or 1 μM)
Description: as §1, with “(2001)).” for “(2001)). Lung histology:”, “J. Allergy Clin. Immunol. 121, 864-871 e864 (2008)) by measuring changes in airway resistance (RL) in response to increasing doses of inhaled methacholine (MCh, Sigma-Aldrich, St. Louis, Mo.). Data” for “Paraffin sections (5-μm thick)”, “presented as percentage change from the baseline RL values after saline inhalation.” for “stained with periodic acid-Schiff (PAS).”

Cyp11a1 [3] = assay: CYP11A1 immunoblot analyses of CD8+ T cells; type: cell-based, mouse; settings: 100 nM or 1 μM during differentiation in IL-2+IL-4
From the text: J. Allergy Clin. Immunol. 121, 864-871 e864 (2008)). […] Samples were run by sodium dodecyl sulfate polyacrylamide gel electrophoresis (SDS-PAGE) and transferred to nitrocellulose membranes. […] Horseradish peroxidase-conjugated anti-rabbit IgG (GE Healthcare, Hertfordshire, UK) was used to detect CYP11A1 protein. Mouse monoclonal anti-β-actin antibody (Sigma-Aldrich, St. Louis, Mo.) was used as an internal control. Immunoreactive bands were quantified by densitometric quantification of autoradiographs using Image J (NIMH, Bethesda, Md.), and expressed as relative CYP11A1 normalized to β-actin (Sigma-Aldrich, St. Louis, Mo.).

[4] = system: CD4+ T cells from steroid-resistant asthmatics; settings: 500 nM; cited from earlier work
[5] = system: sensitized and challenged CD8-deficient mice; assay: Secondary allergen challenge model with adoptive transfer: bronchoalveolar lavage (BAL) fluid analyses; type: in vivo, mouse
Description: as §1, with “Bronchoalveolar lavage (BAL) fluid analyses: After measurement of AHR, lungs were lavaged via the tracheal tube with 1 ml of HBSS.” for “Lung histology:”, “J. Allergy Clin. Immunol. 121, 864-871 e864 (2008)). […] J. Allergy Clin. Immunol. 121, 864-871 e864 (2008)).” for “Paraffin sections (5-μm thick) were stained with periodic acid-Schiff (PAS).”

CD8+ T cells [6] = assay: Cell viability (total cell numbers) during CD8+ T cell differentiation; type: cell-based, mouse; settings: IL-2 or IL-2+IL-4; 100 nM or 1 μM; days 0 and 4
From the text: Data (mean±SEM) are from five experiments. **p<0.01 compared to the IL-2 group on day 4.
(§2) J. Allergy Clin. Immunol. 121, 864-871 e864 (2008)).

Tbx21 = assay: qPCR gene expression of Tbx21 in CD8+ T cells; type: cell-based, mouse; settings: IL-4 and 1,25D3 present during CD8+ T-cell differentiation
From the text: as §2

Cyp11a1 [7] = assay: ELISA for pregnenolone in supernatants of CD8+ T cells (CYP11A1 enzymatic activity); type: cell-based, mouse; settings: cells cultured in the presence of 1,25D3 (100 nM or 1 μM)
From the text: as §2

CD8+ T cells [8] = assay: Intracellular staining (flow cytometry) of IFN-γ and IL-13 in CD8+ T cells differentiated in IL-2 or IL-2+IL-4; type: cell-based, mouse
Description: as §2
Flow cytometry analyses: For intracellular staining, 1×10^6/ml cells were washed twice with PBS containing 1% BSA, stimulated with 1 μg/ml […] in the presence of 2 μM monensin at 37° C. for 4 hours. After fixation with 4% paraformaldehyde (Electron Microscopy Sciences, Hatfield, Pa.) and permeabilization with 0.1% saponin (Sigma-Aldrich, St. Louis, Mo.), cells were washed twice with PBS containing 1% BSA, then incubated with anti-mouse CD16/CD32 (2.4G2, BD Bioscience, San Jose, Calif.) at 4° C. for 5 minutes, then stained with FITC labeled anti-mouse IFN-γ (XMG 1.2, eBioscience, San Diego, Calif.) and PE-labeled anti-mouse IL-13 (eBio13A, eBioscience, San Diego, Calif.). […] J. Allergy Clin. Immunol. 121, 864-871 e864 (2008)).

Gata3 = assay: qPCR gene expression of Gata3 in CD8+ T cells; type: cell-based, mouse; settings: IL-4 and 1,25D3 present during CD8+ T-cell differentiation
From the text: as §2

Cyp11a1 [9] = assay: qPCR gene expression of Cyp11a1 in CD8+ T cells; type: cell-based, mouse; settings: 100 nM or 1 μM during differentiation in IL-2+IL-4
From the text: as §2

[10] = system: sensitized and challenged CD8-deficient mice; settings: inhibition of the enzymatic activity of CYP11A1; cited from earlier work
Cyp11a1 [11] = settings: inhibition of the enzymatic activity of CYP11A1; cited from earlier work
[12] = compared to recipients of untreated cells, 1,25D3 100 nM or 1 μM
[13] = IL-2 + IL-4 + TCR + VitD (100 nM)
[14] = IL-2 + IL-4 + TCR + VitD (100 nM), listed as VitD
[15] = IL-2 + IL-4 + TCR + VitD (1 μM)
[16] = cultured with SIINFEKL and IL-2+IL-4, 1,25D3 100 nM, 1 μM during differentiation

## C=C1/C(=C\C=C2/CCC[C@]3(C)[C@@H]([C@H](C)CCCC(C)(C)O)CC[C@@H]23)C[C@@H](O)C[C@@H]1O [1,25D3, 1,25-dihydroxy vitamin D3]
[1]
  inflammation in lung sections: less inflammation
  numbers of PAS+ mucus-containing goblet cells: prevents; also recorded: significantly decreased numbers
[2]
  airway hyperresponsiveness (AHR): fails to induce; also recorded: failed to restore
Cyp11a1 [3]
  CYP11A1 protein levels: decreased
[4]
  in vitro effectiveness in CD4+ T cells from steroid-resistant asthmatics: effective
[5]; [12]
  IL-4 level in BAL fluid: decreased; also recorded: significantly lower
  IL-5 level in BAL fluid: decreased; also recorded: significantly lower
  IL-13 level in BAL fluid: decreased; also recorded: significantly lower
[5]; transfer of IL-2-differentiated CD8+ T cells cultured with 1,25D3 (100 nM or 1 μM)
  airway inflammation (cell composition in BAL fluid): failed to restore
CD8+ T cells [6]
  effect on cell viability: not altered; also recorded: no significant effect
Tbx21
  Tbx21 gene expression: only marginally altered; also recorded: affected
Cyp11a1 [7]
  pregnenolone levels in supernatants (CYP11A1 enzymatic activity): markedly reduced; also recorded: decreased
CD8+ T cells [8]; 1,25D3 (100 nM or 1 μM) added only during antigen (SIINFEKL) re-stimulation phase, last 4 hours, IL-2+IL-4
  cytokine profiles (IFN-γ and IL-13) of differentiated CD8+ T cells: does not alter; also recorded: unaffected
CD8+ T cells [8]; [13]
  % of positive cells, IFN-γ+: 24.5±4.8%
  % of positive cells, IFN-ν+ IL-13+: 4%
  % of positive cells, IFN-ν− IL-13−: 55.1%
  % of positive cells, IL-13+: 11.3±4.8%
CD8+ T cells [8]; [14]
  % of positive cells, IFN-γ+: 24.5%
  % of positive cells, IL-13+: 11.3%
CD8+ T cells [8]; [15]
  % of positive cells, IFN-γ+: 30.6%
  % of positive cells, IFN-ν+ IL-13+: 3.5%
  % of positive cells, IFN-ν− IL-13−: 53.9%
  % of positive cells, IL-13+: 8.3%
CD8+ T cells [8]; IL-2 + IL-4 + VitD (100 nM)
  % of positive cells, IFN-γ+: 2.2%
  % of positive cells, IFN-ν+ IL-13+: 0.2%
  % of positive cells, IFN-ν− IL-13−: 92.7%
  % of positive cells, IL-13+: 4.6%
CD8+ T cells [8]; IL-2 + IL-4 + VitD (1 μM)
  % of positive cells, IFN-γ+: 2.7%
  % of positive cells, IFN-ν+ IL-13+: 0.2%
  % of positive cells, IFN-ν− IL-13−: 92.9%
  % of positive cells, IL-13+: 3.8%
CD8+ T cells [8]; IL-2 + TCR + VitD (100 nM)
  % of positive cells, IFN-γ+: 76.8%
  % of positive cells, IFN-ν+ IL-13+: 0.4%
  % of positive cells, IFN-ν− IL-13−: 22.6%
  % of positive cells, IL-13+: 0.1%
CD8+ T cells [8]; IL-2 + TCR + VitD (1 μM)
  % of positive cells, IFN-γ+: 76.2%
  % of positive cells, IFN-ν+ IL-13+: 0.4%
  % of positive cells, IFN-ν− IL-13−: 23.7%
  % of positive cells, IL-13+: 0.1%
CD8+ T cells [8]; IL-2 + VitD (100 nM)
  % of positive cells, IFN-γ+: 3.1%
  % of positive cells, IFN-ν+ IL-13+: 0%
  % of positive cells, IFN-ν− IL-13−: 96.8%
  % of positive cells, IL-13+: 0.2%
CD8+ T cells [8]; IL-2 + VitD (1 μM)
  % of positive cells, IFN-γ+: 4.3%
  % of positive cells, IFN-ν+ IL-13+: 0%
  % of positive cells, IFN-ν− IL-13−: 95.8%
  % of positive cells, IL-13+: 0.2%
CD8+ T cells [8]; [16]
  IFN-γ+ cells (change): increase
  percentage of IL-13+ cells (change): dose-dependent decrease
CD8+ T cells [8]; differentiated in IL-2 alone, 1,25D3 added during differentiation
  IFN-γ-producing capacity of Tc1 cells: not affected
Gata3
  Gata3 gene expression: only marginally altered; also recorded: affected
Cyp11a1 [9]
  CYP11A1 transcript levels: decreased

## CCC1(c2ccc(N)cc2)CCC(=O)NC1=O (stereo not drawn) [AMG, aminoglutethimide]
[10]
  lung allergic responses in sensitized and challenged CD8-deficient mice: failure to restore
Cyp11a1 [11]
  conversion of CD8+ T cells to IL-13 production: inhibitory effects
